The values that follow come from patent US10947242B2, “[1,2,4]triazolo[1,5and#8208;A]pyrimidine compounds as PDE2 inhibitors” (Janssen Pharmaceutica NV, priority 2016, dated 2021).

Read-outs that look alike come from different tables or passages of the source.

Holding throughout (assay type): biochemical
Assay [1] concerns the target T1, Human recombinant PDE3A (hPDE3A) (Homo sapiens, UniProt Q14432).
T1 construct: purchased Scottish Biomedical; host or cells: Sf9 insect cells
The assay can be described thus: In vitro assay PDE3A (SPA, 3H-cAMP hydrolysis).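 For all read-outs here: the method names PDE3A and the table heading PDE3B.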 The note with it: for IC50: hPDE3B pIC50, read-out: pIC50 (converted); for Emax: read-out: hPDE3B Emax, read-out: Emax. The method, then: Human recombinant PDE3A (hPDE3A) was supplied as a partially purified insect cell lysate by Scottish Biomedical, it was cloned from human brain and expressed in Sf9 cells. Tested compounds were dissolved and diluted in 100% DMSO to a concentration 100 fold of the final concentration in the assay. Compound dilutions (0.4 μl) were added in 384 well plates to 20 μl of incubation buffer (50 mM Tris pH 7.8, 8.3 mM MgCl2, 1.7 mM EGTA). 10 μl of hPDE3A enzyme in incubation buffer was added and the reaction was started by addition of 10 μl substrate to a final concentration of 0.4 μM cAMP and 2.4 μCi/ml [^3H]-cAMP. The reaction was incubated for 60 min at room temperature. […] After sedimentation of the beads during 30 min the radioactivity was measured in a Perkin Elmer Topcount scintillation counter and results were expressed as cpm. For blanc values the enzyme was omitted from the reaction and replaced by incubation buffer. Control values were obtained by addition of a final concentration of 1% DMSO instead of compound.

Assay [2] addresses T2, Human recombinant PDE10A (hPDE10A) (Homo sapiens, UniProt Q9Y233).
T2 construct: His tag (inferred from metal chelate purification); made in house; host or cells: Sf9 insect cells (baculovirus)
The assay can be described thus: In vitro assay PDE10A, human clone (SPA, 3H-cAMP hydrolysis). The settings on record: human clone (h), default; for Emax: read-out: hPDE10A2 Emax; for IC50: read-out: hPDE10A2 pIC50 (converted). The method, then: Rat recombinant PDE10A (rPDE10A2) was expressed in Sf9 cells using a recombinant rPDE10A baculovirus construct. […] Tested compounds were dissolved and diluted in 100% DMSO to a concentration 100 fold of the final concentration in the assay. Human recombinant PDE10A ([…]) was expressed in Sf9 cells using a recombinant hPDE10A baculovirus that was made and amplified in house. […] Compound dilutions (0.4 μl) were added in 384 well plates to 20 μl of incubation buffer (50 mM Tris pH 7.8, 8.3 mM MgCl2, 1.7 mM EGTA). 10 μl of rPDE10A or hPDE10A enzyme in incubation buffer was added and the reaction was started by addition of 10 μl substrate to a final concentration of 60 nM cAMP and 0.008 μCi ^3H-cAMP. The reaction was incubated for 60 minutes at room temperature. […] After sedimentation of the beads during 30 minutes the radioactivity was measured in a Perkin Elmer Topcount scintillation counter and results were expressed as cpm. For blanc values the enzyme was omitted from the reaction and replaced by incubation buffer. Control values were obtained by addition of a final concentration of 1% DMSO instead of compound.

The target of assay [3] is T3, Human recombinant PDE2A (hPDE2A) (Homo sapiens, UniProt O00408).
T3 construct: His tag (inferred from metal chelate purification); made in house; host or cells: Sf9 insect cells (baculovirus)
The experiment in a line: In vitro assay PDE2A (SPA, 3H-cGMP hydrolysis). The note with it: for IC50: read-out: hPDE2A pIC50 (converted); for Emax: read-out: hPDE2A Emax.

[4] abbreviates: human recombinant PDE2A, 10 μM cGMP substrate.

T1 sequence (Q14432 whole entry): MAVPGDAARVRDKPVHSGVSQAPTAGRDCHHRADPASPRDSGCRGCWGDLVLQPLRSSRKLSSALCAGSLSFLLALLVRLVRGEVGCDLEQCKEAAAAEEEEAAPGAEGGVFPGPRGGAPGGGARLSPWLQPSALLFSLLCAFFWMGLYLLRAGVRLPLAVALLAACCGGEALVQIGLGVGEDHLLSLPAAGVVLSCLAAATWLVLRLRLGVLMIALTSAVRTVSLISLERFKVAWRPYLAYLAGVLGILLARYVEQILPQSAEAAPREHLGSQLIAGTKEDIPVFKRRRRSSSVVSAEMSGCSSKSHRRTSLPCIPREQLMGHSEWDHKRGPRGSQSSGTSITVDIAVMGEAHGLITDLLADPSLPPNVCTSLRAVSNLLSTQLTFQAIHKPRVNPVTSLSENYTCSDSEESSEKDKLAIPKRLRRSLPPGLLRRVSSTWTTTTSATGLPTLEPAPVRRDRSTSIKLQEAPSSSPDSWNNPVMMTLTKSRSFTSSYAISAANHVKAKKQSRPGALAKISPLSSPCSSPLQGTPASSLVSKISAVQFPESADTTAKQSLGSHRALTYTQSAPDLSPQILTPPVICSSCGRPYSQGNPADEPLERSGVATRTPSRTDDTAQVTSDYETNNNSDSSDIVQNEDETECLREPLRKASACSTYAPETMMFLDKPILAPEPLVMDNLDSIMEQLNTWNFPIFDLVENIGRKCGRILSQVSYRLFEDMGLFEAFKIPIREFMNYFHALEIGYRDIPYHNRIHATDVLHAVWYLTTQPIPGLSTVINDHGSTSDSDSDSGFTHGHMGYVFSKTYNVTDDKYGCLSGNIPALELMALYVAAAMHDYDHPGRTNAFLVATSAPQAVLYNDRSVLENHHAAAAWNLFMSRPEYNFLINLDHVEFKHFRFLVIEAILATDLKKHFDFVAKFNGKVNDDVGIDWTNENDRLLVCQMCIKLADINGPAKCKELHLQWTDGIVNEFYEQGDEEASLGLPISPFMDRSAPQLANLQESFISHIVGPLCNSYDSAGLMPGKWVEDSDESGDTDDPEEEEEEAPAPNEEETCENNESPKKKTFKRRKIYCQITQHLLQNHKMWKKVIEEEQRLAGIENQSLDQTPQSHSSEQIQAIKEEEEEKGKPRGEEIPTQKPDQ
T2 sequence (Q9Y233 267-1055): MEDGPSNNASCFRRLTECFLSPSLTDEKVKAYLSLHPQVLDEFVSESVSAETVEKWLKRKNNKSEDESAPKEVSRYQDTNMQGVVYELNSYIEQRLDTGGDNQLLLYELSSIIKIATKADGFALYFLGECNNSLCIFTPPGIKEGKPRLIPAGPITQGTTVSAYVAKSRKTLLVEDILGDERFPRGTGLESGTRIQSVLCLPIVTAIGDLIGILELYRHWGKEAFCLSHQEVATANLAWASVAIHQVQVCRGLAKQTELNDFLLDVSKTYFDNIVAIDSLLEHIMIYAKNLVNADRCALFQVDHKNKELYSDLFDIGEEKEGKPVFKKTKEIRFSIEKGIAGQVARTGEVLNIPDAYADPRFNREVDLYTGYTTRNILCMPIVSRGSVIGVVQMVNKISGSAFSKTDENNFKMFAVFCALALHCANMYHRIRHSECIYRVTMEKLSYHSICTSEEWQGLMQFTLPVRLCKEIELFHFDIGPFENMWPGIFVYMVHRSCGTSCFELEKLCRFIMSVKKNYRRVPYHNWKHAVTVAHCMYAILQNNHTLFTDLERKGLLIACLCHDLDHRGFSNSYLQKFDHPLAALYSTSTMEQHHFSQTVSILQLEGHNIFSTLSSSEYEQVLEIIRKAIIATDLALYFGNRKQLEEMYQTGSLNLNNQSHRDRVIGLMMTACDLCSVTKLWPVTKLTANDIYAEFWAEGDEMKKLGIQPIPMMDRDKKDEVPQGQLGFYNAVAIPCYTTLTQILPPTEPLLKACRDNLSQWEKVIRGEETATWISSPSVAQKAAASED
T3 sequence (O00408 whole entry): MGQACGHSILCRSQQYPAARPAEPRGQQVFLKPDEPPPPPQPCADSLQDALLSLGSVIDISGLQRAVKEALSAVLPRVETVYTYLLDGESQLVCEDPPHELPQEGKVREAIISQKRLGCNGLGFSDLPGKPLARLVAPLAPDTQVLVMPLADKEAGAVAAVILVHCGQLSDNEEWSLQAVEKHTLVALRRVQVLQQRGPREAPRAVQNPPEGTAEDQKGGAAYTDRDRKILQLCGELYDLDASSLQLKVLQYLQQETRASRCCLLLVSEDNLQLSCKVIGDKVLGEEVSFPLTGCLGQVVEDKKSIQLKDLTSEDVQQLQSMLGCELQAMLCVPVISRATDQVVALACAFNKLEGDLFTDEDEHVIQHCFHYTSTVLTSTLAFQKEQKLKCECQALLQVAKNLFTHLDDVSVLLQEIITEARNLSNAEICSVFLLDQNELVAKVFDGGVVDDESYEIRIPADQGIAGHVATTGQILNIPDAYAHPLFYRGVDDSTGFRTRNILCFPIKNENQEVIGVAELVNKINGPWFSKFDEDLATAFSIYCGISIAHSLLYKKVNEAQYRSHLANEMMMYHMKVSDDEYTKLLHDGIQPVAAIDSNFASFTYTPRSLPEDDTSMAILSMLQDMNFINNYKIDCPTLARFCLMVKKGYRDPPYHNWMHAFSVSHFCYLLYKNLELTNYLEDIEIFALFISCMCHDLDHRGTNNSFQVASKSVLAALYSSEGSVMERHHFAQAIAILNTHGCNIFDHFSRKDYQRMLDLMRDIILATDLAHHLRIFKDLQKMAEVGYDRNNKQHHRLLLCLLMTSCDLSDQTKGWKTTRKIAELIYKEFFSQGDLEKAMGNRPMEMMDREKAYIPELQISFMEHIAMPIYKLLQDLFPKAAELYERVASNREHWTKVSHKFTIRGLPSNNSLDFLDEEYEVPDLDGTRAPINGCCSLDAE

Turning to `C[C@@H]1CCN(C(=O)c2cocn2)C[C@H]1c1cc(C(F)F)nc2ncnn12` [Compound 87], the IC50 in assay [1] is above 10000 nM; in assay [2], 4570 nM; in assay [3] (setting [4]), 214 nM; in assay [3], 214 nM. For the same molecule, the Emax in assay [1] was 11%; in assay [2], 69%; in assay [3] (human recombinant PDE2A), 98%; in assay [3] it was 98%.

As to `C[C@@H]1CCN(C(=O)c2ccc3nc(N)sc3c2)C[C@H]1c1cc(C(F)F)nc2ncnn12` [Compound 88], the IC50 is 389 nM in assay [1], 3.98 nM in assay [2], 0.209 nM in assay [3] (setting [4]) and 0.209 nM in assay [3]. Also, the maximal effect (Emax) in assay [1] worked out at 97%; in assay [2] it was 99%; in assay [3] (human recombinant PDE2A), 101%; in assay [3], 101%.

As to `Cc1coc2ccc(C(=O)N3CC[C@@H](C)[C@H](c4cc(C(F)F)nc5ncnn45)C3)cc12` [Compound 92], the IC50 was 1320 nM in assay [1], 24.5 nM in assay [2], 0.398 nM in assay [3] (setting [4]) and 0.398 nM in assay [3]. Besides, the Emax came to 88% in assay [1], 98% in assay [2], 100% in assay [3] (human recombinant PDE2A) and 100% in assay [3].

With `C[C@@H]1CCN(C(=O)c2cc3ccc(C(F)(F)F)cc3[nH]2)C[C@H]1c1cc(C(F)F)nc2ncnn12` [Compound 94], the IC50 in assay [1] is 105 nM; in assay [2], 11.7 nM; in assay [3] (setting [4]), 0.501 nM; in assay [3], 0.501 nM. The Emax in assay [1] is 99%; in assay [2], 97%; in assay [3] (human recombinant PDE2A), 101%; in assay [3] it was 101%.

Consider `C[C@@H]1CCN(C(=O)c2cc(-c3ccco3)nn2C)C[C@H]1c1cc(C(F)F)nc2ncnn12` [Compound 98], for which the IC50 in assay [1] is 603 nM; in assay [2], 39.8 nM; in assay [3] (setting [4]), 0.603 nM; in assay [3], 0.603 nM. Further, the Emax in assay [1] was 94%; in assay [2], 98%; in assay [3] (human recombinant PDE2A) it was 100%; in assay [3], 100%.

Turning to `Cc1csc2ccc(C(=O)N3CC[C@@H](C)[C@H](c4cc(C(F)F)nc5ncnn45)C3)nc12` [Compound 100], the IC50 is 269 nM in assay [1], 16.2 nM in assay [2], 0.661 nM in assay [3] (setting [4]) and 0.661 nM in assay [3]. Besides, the Emax was determined as 99% in assay [1], 100% in assay [2], 101% in assay [3] (human recombinant PDE2A) and 101% in assay [3].

As for `C[C@@H]1CCN(C(=O)c2ccc3ncoc3c2)C[C@H]1c1cc(C(F)F)nc2ncnn12` [Compound 104], the IC50 in assay [1] was 513 nM; in assay [2], 74.1 nM; in assay [3] (setting [4]), 0.813 nM; in assay [3], 0.813 nM. Also, the Emax in assay [1] is 92%; in assay [2] it was 98%; in assay [3] (human recombinant PDE2A), 100%; in assay [3], 100%.

In the case of `COc1cccc2cc(C(=O)N3CC[C@@H](C)[C@H](c4cc(C(F)F)nc5ncnn45)C3)oc12` [Compound 105], the IC50 in assay [1] is 1350 nM; in assay [2], 29.5 nM; in assay [3] (setting [4]) it was 0.871 nM; in assay [3] it was 0.871 nM. In addition, the Emax in assay [1] worked out at 90%; in assay [2] it was 101%; in assay [3] (human recombinant PDE2A) it was 101%; in assay [3], 101%.

In the case of `C[C@@H]1CCN(C(=O)c2c[nH]c3ccc(F)cc23)C[C@H]1c1cc(C(F)F)nc2ncnn12` [Compound 112], the IC50 in assay [1] is 1780 nM; in assay [2], 47.9 nM; in assay [3] (setting [4]), 1 nM; in assay [3], 1 nM. For the same molecule, the Emax worked out at 84% in assay [1], 99% in assay [2], 101% in assay [3] (human recombinant PDE2A) and 101% in assay [3].

`COc1cc(C(=O)N2CC[C@@H](C)[C@H](c3cc(C(F)F)nc4ncnn34)C2)cc(C2CC2)n1` [Compound 113]: the IC50 in assay [1] was 1120 nM; in assay [2], 38 nM; in assay [3] (setting [4]) it was 1 nM; in assay [3], 1 nM. Besides, the Emax came out at 88% in assay [1], 99% in assay [2], 99% in assay [3] (human recombinant PDE2A) and 99% in assay [3].

For the molecule `C[C@@H]1CCN(C(=O)c2cc3ccccc3n2C)C[C@H]1c1cc(C(F)F)nc2ncnn12` [Compound 114], the IC50 is 89.1 nM in assay [1], 45.7 nM in assay [2], 1.05 nM in assay [3] (setting [4]) and 1.05 nM in assay [3]. Moreover, the Emax in assay [1] was determined as 98%; in assay [2] it was 101%; in assay [3] (human recombinant PDE2A) it was 100%; in assay [3], 100%.

Turning to `Cc1c(C(=O)N2CC[C@@H](C)[C@H](c3cc(C(F)F)nc4ncnn34)C2)sc2ccccc12` [Compound 119], the IC50 in assay [1] was 61.7 nM; in assay [2] it was 77.6 nM; in assay [3] (setting [4]), 1.74 nM; in assay [3], 1.74 nM. Moreover, the Emax in assay [1] was 101%; in assay [2], 99%; in assay [3] (human recombinant PDE2A), 100%; in assay [3] it was 100%.

In the case of `COc1c(F)cc(C(=O)N2CC[C@@H](C)[C@H](c3cc(C(F)F)nc4ncnn34)C2)cc1F` [Compound 128], the IC50 is 933 nM in assay [1], 155 nM in assay [2], 2.29 nM in assay [3] (setting [4]) and 2.29 nM in assay [3]. The Emax in assay [1] worked out at 90%; in assay [2], 98%; in assay [3] (human recombinant PDE2A), 100%; in assay [3], 100%.

With `C[C@@H]1CCN(C(=O)c2ccc(F)c(C3CC3)c2)C[C@H]1c1cc(C(F)F)nc2ncnn12` [Compound 135], the IC50 in assay [1] was 2630 nM; in assay [2], 191 nM; in assay [3] (setting [4]), 3.31 nM; in assay [3], 3.31 nM. The maximum response (Emax) in assay [1] is 81%; in assay [2], 97%; in assay [3] (human recombinant PDE2A), 100%; in assay [3], 100%.

As for `C[C@@H]1CCN(C(=O)c2ccc(C(C)(C)C)o2)C[C@H]1c1cc(C(F)F)nc2ncnn12` [Compound 136], the IC50 in assay [1] is above 10000 nM; in assay [2], 288 nM; in assay [3] (setting [4]), 3.39 nM; in assay [3], 3.39 nM. Moreover, the Emax in assay [1] is 51%; in assay [2], 97%; in assay [3] (human recombinant PDE2A), 101%; in assay [3], 101%.

As for `Cc1c(C(=O)N2[C@H]3CC[C@@H]2[C@H](c2cc(C(F)F)nc4ncnn24)CC3)oc2ccccc12` [Compound 140], the IC50 was 8910 nM in assay [1], 3090 nM in assay [2], 29.5 nM in assay [3] (setting [4]) and 29.5 nM in assay [3]. For the same molecule, the Emax in assay [1] was determined as 57%; in assay [2] it was 83%; in assay [3] (human recombinant PDE2A), 100%; in assay [3], 100%.

Consider `Cc1cc(C(=O)N2CC[C@@H](C)[C@H](c3cc(C(F)F)nc4ncnn34)C2)nc(C)n1` [Compound 141], for which the IC50 in assay [1] was above 10000 nM; in assay [2] it was 2040 nM; in assay [3] (setting [4]), 29.5 nM; in assay [3], 29.5 nM. The Emax is 12% in assay [1], 81% in assay [2], 100% in assay [3] (human recombinant PDE2A) and 100% in assay [3].

For `C[C@@H]1CCN(C(=O)c2ccncc2N)C[C@H]1c1cc(C(F)F)nc2ncnn12` [Compound 142], the IC50 in assay [1] was above 10000 nM; in assay [2], 2570 nM; in assay [3] (setting [4]), 30.2 nM; in assay [3] it was 30.2 nM. Also, the Emax in assay [1] came out at 35%; in assay [2], 79%; in assay [3] (human recombinant PDE2A), 100%; in assay [3], 100%.

Turning to `Cc1ccc(C(=O)N2CC[C@@H](C)[C@H](c3cc(C(F)F)nc4ncnn34)C2)c(C)n1` [Compound 143], the IC50 in assay [1] was 7940 nM; in assay [2] it was 2400 nM; in assay [3] (setting [4]) it was 33.1 nM; in assay [3] it was 33.1 nM. The Emax worked out at 58% in assay [1], 77% in assay [2], 97% in assay [3] (human recombinant PDE2A) and 97% in assay [3].
